Results from patent US7715901B2, “Sensitized online BOLD-MRI imaging method” (Yeda Research and Development Co. Ltd., priority 2002, dated 2010).

How the values were obtained:
M2R melanoma xenografts = assay: Follow up of tumor response after Pd-Bpheid PDT; assay type: in vivo, mouse
Procedure: (i) Animals, tumor model and PDT Male CD1 nude mice (30 g±2 g) were implanted s.c. with M2R melanoma xenografts. PDT of anesthetized mice was performed on tumors (7-9 mm in diameter), as previously described (Zilberstein et al., 2001), with slight changes to allow for manipulation inside the magnet during MRI recording, or to perform PDT on the anesthetized mouse placed on the microscope stage during IVM. Intravenous (i.v.) Pd-Bpheid administration (5 mg/kg in vehicle, provided by Negma-Lerads Laboratoires, Toussus Le-Noble, France) was immediately followed by fiber optic guided tumor illumination (light spot Ø=1 cm^2, 763 nm, 102 J/cm^2) for 10 minutes, using a 1 W diode laser (CeramOptec GmbH, Bonn, Germany). The experiments were performed inside the magnet during the MRI recording (see details below). Room temperature was kept constant (28° C.) throughout the experiments.
PDT was performed in three modes: (i) for tumor therapy, i.v. Pd-Bpheid administration was immediately followed by transcutaneous illumination; (ii) for MR imaging, Pd-Bpheid administration (by remotely activated i.v. catheterization) and transcutaneous illumination were performed inside the magnet (FIG. 5A); and (iii) for IVM, Pd-Bpheid administration and illumination of the semi-transparent mouse ear were conducted on top of the microscope stage.
Controls: Light control: illumination of tumors in mice administered with vehicle alone (without photosensitizer). Dark control, Pd-Bpheid administered to tumor-bearing mice without illumination. Mice were euthanized (CO2) to avoid tumor burden when tumors reached ≧10% of body weight. All experiments were conducted according to institutional animal welfare regulations.
Male CD1 nude mice, s.c. implanted with M2R melanoma xenografts were i.v.-injected with Pd-Bpheid (5 mg/kg) and instantly illuminated for 10 minutes (102 J/cm^2). Hemorrhagic tumor necrosis (10/11 mice within 24-48 h) was accompanied by a strong inflammatory response. Tumors in untreated (4/4) light (4/4 mice) or dark (4/4 mice) controls continued to grow reaching […] of body […] by 9±3 days. […]

[1] = system: M2R melanoma tumor blood vessels; assay: Immunohistochemistry of HNE-protein adducts (lipid peroxidation) in tumors after PDT; assay type: in vivo, mouse; settings: tumors dissected 1 hour after PDT
Source text: (iii) Immunohistochemistry (IHC): Histological and immunohistological examinations were used for validation of the results obtained during the PDT experiments conducted by MRI and IVM. Dissected tumors were fixed in paraformaldehyde, and embedded in paraffin. IHC of PDT-induced LPO was based on immunodetection of HNE (4-hydroxynonenal), an aldehydic peroxidation product of polyunsaturated fatty acids that forms covalent adducts with proteins by reductive amination and/or Michael type addition (Uchida et al., 1995). PDT-damaged areas were visualized by IHC with anti-HNE. Thus, tumor sections were re-hydrated, blocked with bovine serum albumin for 4 h at 37° C., and treated with rabbit anti-HNE antiserum specifically recognizing HNE adducts (Calbiochem, La Jolla, Calif., USA, 1:400). HRP-conjugated goat anti-rabbit antibody served as 2nd antibody (Jackson, West Grove, Pa., USA) using 3-amino-9-ethylcarbazole as a chromogenic substrate (AEC, Sigma, St. Louis, Mo., USA).
Tumors were dissected 1 hour after PDT, fixed and prepared for IHC. […] In tumors taken from light controls (FIGS. 2B, 2E) or dark controls (data not shown), HNE staining was negative in blood vessels and was seen only in necrotic tumor core (spontaneous, PDT independent). FIGS. 2A, 2B and 2C are parallel adjacent sections of 2D, 2E and 2F, respectively, stained with hematoxylin-eosin.

[2] = system: mouse ear lobe blood vessels; assay: Fluorescent intravital microscopy of PDT-induced hemodynamic changes; assay type: in vivo
Procedure: (iv) Intravital microscopy (IVM). Fluorescent IVM was performed with an upright microscope (Nikon Optiphot 2, Kawasaki, Japan) equipped with a thermoregulated stage (37° C.), a CCD camera (50 fps, Applitech, Tel-Aviv, Israel) and a VCR (JVC model HR-J437MS, Yokohama, Japan) for video recording.
Fluorescent IVM in the nude mouse ear lobe (Proske et al, 2000) was used for analysis of changes in vascular diameter, vascular permeability and blood flow. RBC from a donor mouse were labeled ex vivo with 4-(4-(didecylamino)styryl)-N-methylpyridinium iodide (4-Di-10-ASP, 7.5 μg/ml, Molecular Probes, Eugene, Oreg., USA), as previously described (Neeman et al., 2001). The labeled RBC mixed with TRITC-dextran (256 KDa, 0.5 mg/mouse as blood-pool marker, Sigma, St. Louis, Mo., USA) were i.v. administered to the tumor-bearing mouse (labeled cells comprised 1.17+/−0.08% of host RBC as verified on blood smears) and allowed to circulate for 10 min prior to video recording (mag. ×100, 20 min), starting 5 min prior to Pd-Bpheid/light and ending 5 min after the light was turned-off. Mice were euthanized by CO2 at the end of the experiment.
Fluorescence images of blood vessels were acquired every 2 minutes, before, during and up to 10 minutes after illumination. Two hemodynamic parameters were digitally calculated (Scionimage software, Scion Corp., USA) from these images: (1) Changes in blood vessel diameter (arteriolar and venular), and (2) Extravascular leakage of TRITC-dextran (measured as changes in mean pixel intensity at an 2500 μm^2 extravascular region of interest). Both parameters are presented as % of initial value.
It was reported by us (Zilberstein et al., 2001) and others (Dolmans et al., 2002), that in course of anti-vascular PDT, rapid and intense hemodynamic alterations and stasis are observed in the treated tumor site. In this experiment, fluorescence IVM was used to correlate these hemodynamic changes with the MR signal alterations before, during and after Pd-Bpheid PDT. All IVM experiments were performed on the mouse ear lobe model (Proske et al., 2000), since blood vessels in this area can be easily visualized non-invasively under the microscope. Three hemodynamic parameters were measured: (1) changes in vessel diameter (vasoconstriction), (2) extravascular macromolecular leakage, and (3) red blood cell (RBC) flux. […] Significant changes in vessel diameter or RBC flux were not observed in control animals (FIGS. 3B, D and F). […] Changes in tumor perfusion were assessed before, during and after Pd-Bpheid PDT. Pd-Bpheid administration and immediate illumination of the mouse ear lobe, initiated a rapid decrease in perfusion rate both in arterioles and vennules (open and solid circles, respectively), reaching stasis within 3-4 min (FIG. 3C), while illumination alone had no significant effect (FIG. 3D).

human blood [3] = assay: Spectroscopic sPO2 of photosensitized blood
Procedure: sPO2 of photosensitized blood: Optical spectroscopy. Fresh human blood collected in Na-citrate was steered (37° C.) in a sealed optical cuvette (under N2) without or with Pd-Bpheid (100 μg/ml). Online spectroscopic sPO2 determination was performed with a LESA reflectance spectrometer (Biospec, Moscow, Russia) as described (Neeman et al., 2001). Recording was initiated 2 minutes prior to illumination. Ten illumination cycles (1 min each, 170 mW/cm^2) were performed with spectral measurements (8×5 sec) in the intervening periods when the light was turned-off.
For spectroscopic examination, fresh human blood was subjected to spectral analysis of sPO2 during PDT in vitro. […] Upon illumination, a rapid decline in sPO2 was observed reaching a plateau at ˜25% (≧2 minutes of illumination). In the absence of Pd-Bpheid, illumination had no effect.

human blood [4] = assay: T2* weighted MRI of photosensitized isolated blood (ex vivo); settings: for Decline in T2* weighted MR signal intensity of blood: untreated blood = 100%
Procedure: (c) Ex-vivo measurements: Freshly collected human blood in sodium citrate was spun down and re-suspended in autologous plasma to 0.6-0.7 hematocrit to minimize red blood cell (RBC) sedimentation during MRI experiments. Blood samples (500 μl) were placed in 6×50 mm glass tubes (Kimble, Div. of Owens, Ill., USA), sealed under N2 and each placed in a 3.5 ml optical plastic cuvette containing 2 ml of PBS. A proton volume coil was used (field of view 7 cm, slice thickness 2 mm, data was zero filled to matrix 512×512). Data were analyzed as the mean signal intensity of the blood sample relative to the surrounding phosphate-buffered saline (PBS).
For the MRI examination, we next determined the effect of PDT on sPO2 in isolated human blood, as manifested in T2* weighted MR signal intensity, under similar conditions. […] Thus, photosensitization of Pd-Bpheid in blood reduces sPO2 as reflected by a significant decrease in signal intensity of […] MR images in the absence of flow and volume changes.

M2R melanoma tumor = assay: Online BOLD-contrast MRI during solid tumor PDT; assay type: in vivo, mouse
Procedure: (a) Gradient echo (GE) and multiecho gradient echo (MEGE) MR images were acquired on a horizontal 4.7 T Bruker Biospec spectrometer (Rheinstetten, Germany), as described previously (Gilead et al., 1999). Imaging parameters are as follows: slice thickness 0.8 mm, TR 230 ms, TE 10 ms for GE and TE 10, 21.24 and 32.48 ms for MEGE, flip angel 40°, acquisition (AQ) time 117 sec, matrix 256×256 pixels.
(b) Animal studies: Whole body excitation coil and an RF decoupled 1.5 cm surface coil were used for improving signal/noise ratio (field of view 4 cm, slice thickness 0.8 mm). Mice were anesthetized, catheterized, and restrained by adhesive tape (supine/lateral) to locate the tumor above the center of the MRI surface coil; the laser optic fiber was fixed in place to illuminate the tumor area (FIG. 5A). After four sequential images were acquired, mice were treated i.v. with Pd-Bpheid (5 mg/kg) followed by 10 min illumination, while 11 more images were acquired. Room temperature was maintained at 28° C.
(d) Data analysis: MRI data was analyzed using Matlab (The MathWorks Inc., Natick, Mass., USA), Orisis (Version 4.0.9, Geneva, Switzerland) and Paravision 2.1.1 (Bruker, Rheinstetten, Germany). MR signal intensity was derived from each image, either from the region of interest inside the tumor or in control tissue, and normalized to the first image. Response maps were generated by division of each image by the average of the first 2 pre-PDT images. R2* maps were derived by noise weighted linear regression of log(SI), for each pixel. Only pixels with fit of R^2≧0.36 were analyzed. R2*: MRI relaxivity parameter; R^2: statistical correlation parameter.
Having shown that photosensitization of Pd-Bpheid induces changes in blood oxygen levels, we next attempted to detect such changes during PDT of a solid tumor in vivo, using MRI. BOLD-MR imaging was applied before, during and after PDT of the solid subcutaneous M2R melanoma tumor. Pd-Bpheid administration, followed by instant tumor illumination, induced a profound decrease in the MR signal intensity (25-40%) solely within the illuminated tumor area (FIGS. 5C, 6A and 6E). […] MR signal attenuation developed during the first 6-7 minutes of illumination and remained low throughout the experiment.
The MRI value ΔR2* (relaxivity difference in T2*-weighted acquisitions) is dependent only on changes in blood oxygenation and volume, and is not dependent on blood flow.

normal canine prostate = settings: dog, in vivo; cited from earlier work
[5] = system: melanoma, glioma, sarcoma and human prostate xenografts; settings: cited from earlier work; for Cure rates after anti-vascular PDT: mice and rats

For `CC[C@H]1c2cc3[n-]c4c(c3C)C(=O)[C@H](C(=O)OC)c4c3nc(cc4[n-]c(cc(n2)[C@@H]1C)c(C(C)=O)c4C)[C@@H](C)[C@@H]3CCC(=O)O.[Pd+2]` [Pd-Bpheid, Palladium-bacteriopheophorbide], the “Hemorrhagic tumor necrosis (responding/treated mice)” value (M2R melanoma xenografts; 5 mg/kg i.v., instant illumination 10 min, 102 J/cm^2, within 24-48 h) was 10/11, the “Tumors continued to grow (dark control, Pd-Bpheid without illumination)” value (M2R melanoma xenografts; 5 mg/kg, no light) was 4/4 and the “Tumor outcome in visual follow-up” value (M2R melanoma xenografts; one mouse, 5 mg/kg i.v., 763 nm, 102 J/cm^2, day 54 post treatment) was “cure”. The “HNE adduct immunostaining (ROS-induced LPO)” value [1] was “massive generation of HNE adducts co-localized with tumor blood vessels”, the “Reduction in arteriolar diameter” value ([2]; 2-3 minutes after onset of illumination) was “about 50%” and the “Blood flow (RBC flux)” value ([2]; 2-6 minutes after onset of illumination) was “sharp decline in blood flow”. For the same compound, the “Time to complete blood stasis after onset of illumination” value ([2]; FIG. 3C) was 6 to 7 min, the “Time to stasis (perfusion rate in arterioles and venules)” value ([2]; FIG. 3C, immediate illumination of ear lobe) was 3 to 4 min and the “Extravascular TRITC-dextran (256 KDa) leakage, highest level” value ([2]; at end of illumination period, ± S.E.) was 145±8 % of baseline. The “sPO2 plateau upon illumination” value (human blood [3]; Pd-Bpheid 100 μg/ml, 170 mW/cm^2, ≧2 minutes of illumination) was roughly 25%, the “Decline in sPO2” value (human blood [3]; within the first min of illumination, FIG. 4A) was roughly 75% and the “Decline in T2* weighted MR signal intensity of blood” value (human blood [4]; 1 min illumination) was 38.1%. The “Decline in T2* weighted MR signal intensity of blood” value (human blood [4]; 5 min illumination) was 74.4%, the “MR signal intensity of dark control blood” value (human blood [4]; Pd-Bpheid without light) was “essentially identical to that of untreated blood” and the “Decrease in MR signal intensity in illuminated tumor” value (M2R melanoma tumor; 5 mg/kg i.v., 10 min illumination) was 25-40%. The “Change in MR signal intensity, dark tumor control” value (M2R melanoma tumor; Pd-Bpheid without illumination, FIG. 6C) was “No detectable change in signal intensity”, the “Time to generation of photosensitized MR BOLD-contrast” value (M2R melanoma tumor; during PDT) was no more than 2 min and the “Time over which MR signal attenuation developed” value (M2R melanoma tumor; from onset of illumination) was 6 to 7 min. The “Outcome of PDT in canine prostate” value (normal canine prostate) was “full necrosis of the tumor without functional urethral damage or damage to other adjacent tissues”, the “Incidence of metastasis compared with conventional surgery” value ([5]; Schreiber et al., 2002) was “decreased the incidence of metastasis” and the “Cure rates after anti-vascular PDT” value [5] was “high cure rates”.

In the case of “bacteriochlorophyll-serine [Bchl-Ser, reference compound]”, the “Cure rates after anti-vascular PDT” value [5] is listed as “high cure rates”.
